Results taken from the supplement of paper PMC10307832.

How the values were obtained:
Test in all cases: relative viability (nuclei count vs DMSO), 5 days (fraction); higher = more cells survive
[1] = compound: Cc1ccc(F)c(NC(=O)Nc2ccc(-c3cccc4[nH]nc(N)c34)cc2)c1 [Linifanib]
Method in brief: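 Five library-drug doses spaced by √10 were pinned onto vehicle-anchored 1536-well plates of lung cancer cell lines that had been kept overnight at 37 °C. Cells went 5 days without medium change, then were fixed, permeabilised and Hoechst-stained together, imaged at 4× and counted by MetaXpress. Viability is the ratio of treated-well to vehicle-well nuclei, taken as a median over plates. Plates required control CV below 25% and at least one doubling.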

[2] = compound: Cc1ccc(F)c(NC(=O)Nc2ccc(-c3cccc4[nH]nc(N)c34)cc2)c1 [Linifanib] + CC(C)C[C@H](NC(=O)[C@H](Cc1ccccc1)NC(=O)c1cnccn1)B(O)O [Bortezomib] (partner 0.002 µM)
Method in brief: (§1)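 For relative viability, nuclei counts in treated wells were divided by those in vehicle wells. Lung cancer cell lines had been pin-tool dosed in 1536-well plates the day after seeding and cultured for 5 days, then fixed and stained in one step (final 0.05% Triton X-100, 1% formaldehyde, 1 ug/ml Hoechst) and imaged at 4×. Doses were one drug alone or a fixed anchor-drug dose plus five library-drug doses (not always all listed) in √10 steps, and values are duplicate-plate medians.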

[3] = compound: Cc1ccc(F)c(NC(=O)Nc2ccc(-c3cccc4[nH]nc(N)c34)cc2)c1 [Linifanib] + CCNC(=O)c1noc(-c2cc(C(C)C)c(O)cc2O)c1-c1ccc(CN2CCOCC2)cc1 [Luminespib] (partner 0.01 µM)
Method in brief: as §1

[4] = compound: Cc1ccc(F)c(NC(=O)Nc2ccc(-c3cccc4[nH]nc(N)c34)cc2)c1 [Linifanib] + COc1cc2c(Oc3ccc(NC(=O)C4(C(=O)Nc5ccc(F)cc5)CC4)cc3F)ccnc2cc1OCCCN1CCOCC1 [Foretinib] (partner 0.25 µM)
Method in brief: as §1

[5] = compound: Cc1ccc(F)c(NC(=O)Nc2ccc(-c3cccc4[nH]nc(N)c34)cc2)c1 [Linifanib] + COc1cccc2cc(-c3nc([C@H]4CC[C@H](C(=O)O)CC4)n4ncnc(N)c34)[nH]c12 [OSI-027] (partner 0.5 µM)
Method in brief: as §1

[6] = compound: Cc1ccc(F)c(NC(=O)Nc2ccc(-c3cccc4[nH]nc(N)c34)cc2)c1 [Linifanib] + CS(=O)(=O)CCNCc1ccc(-c2ccc3ncnc(Nc4ccc(OCc5cccc(F)c5)c(Cl)c4)c3c2)o1 [Lapatinib] (partner 2 µM)
Method in brief: as §1

[7] = compound: Cc1ccc(F)c(NC(=O)Nc2ccc(-c3cccc4[nH]nc(N)c34)cc2)c1 [Linifanib] + CS(=O)(=O)N1CCN(Cc2cc3nc(-c4cccc5[nH]ncc45)nc(N4CCOCC4)c3s2)CC1 [Pictilisib] (partner 1 µM)
Method in brief: as §1

[8] = compound: Cc1ccc(F)c(NC(=O)Nc2ccc(-c3cccc4[nH]nc(N)c34)cc2)c1 [Linifanib] + C[C@@H](Oc1cc(-c2cnn(C3CCNCC3)c2)cnc1N)c1c(Cl)ccc(F)c1Cl [Crizotinib] (partner 1 µM)
Method in brief: as §1

[9] = compound: Cc1ccc(F)c(NC(=O)Nc2ccc(-c3cccc4[nH]nc(N)c34)cc2)c1 [Linifanib] + C[C@]1(O)C[C@@H](c2nc(-c3ccc4ccc(-c5ccccc5)nc4c3)c3c(N)nccn32)C1 [Linsitinib] (partner 1 µM)
Method in brief: as §1

[10] = compound: Cc1ccc(F)c(NC(=O)Nc2ccc(-c3cccc4[nH]nc(N)c34)cc2)c1 [Linifanib] + Cc1nc(NC(=O)N2CCC[C@H]2C(N)=O)sc1-c1ccnc(C(C)(C)C(F)(F)F)c1 [Alpelisib] (partner 2 µM)
Method in brief: as §1

[11] = compound: Cc1ccc(F)c(NC(=O)Nc2ccc(-c3cccc4[nH]nc(N)c34)cc2)c1 [Linifanib] + Cc1nc(Nc2ncc(C(=O)Nc3c(C)cccc3Cl)s2)cc(N2CCN(CCO)CC2)n1 [Dasatinib] (partner 0.075 µM)
Method in brief: as §1

[12] = compound: Cc1ccc(F)c(NC(=O)Nc2ccc(-c3cccc4[nH]nc(N)c34)cc2)c1 [Linifanib] + N=C(N)NC(=N)NCCc1ccccc1 [Phenformin] (partner 250 µM)
Method in brief: as §1

[13] = compound: Cc1ccc(F)c(NC(=O)Nc2ccc(-c3cccc4[nH]nc(N)c34)cc2)c1 [Linifanib] + Nc1nc2[nH]cc(CCc3ccc(C(=O)N[C@@H](CCC(=O)O)C(=O)O)cc3)c2c(=O)[nH]1 [Pemetrexed] (partner 0.2 µM)
Method in brief: as §1

[14] = compound: Cc1ccc(F)c(NC(=O)Nc2ccc(-c3cccc4[nH]nc(N)c34)cc2)c1 [Linifanib] + CC1(C)CCC(c2ccc(Cl)cc2)=C(CN2CCN(c3ccc(C(=O)NS(=O)(=O)c4ccc(N[C@H](CCN5CCOCC5)CSc5ccccc5)c(S(=O)(=O)C(F)(F)F)c4)cc3)CC2)C1 [Navitoclax] (partner 0.5 µM)
Method in brief: as §1

[15] = compound: Cc1ccc(F)c(NC(=O)Nc2ccc(-c3cccc4[nH]nc(N)c34)cc2)c1 [Linifanib] + NC(=O)Nc1cc(-c2cccc(F)c2)sc1C(=O)N[C@H]1CCCNC1 [AZD7762] (partner 0.2 µM)
Method in brief: as §1

[16] = compound: Cc1ccc(F)c(NC(=O)Nc2ccc(-c3cccc4[nH]nc(N)c34)cc2)c1 [Linifanib] + O=C(c1cc(Cc2n[nH]c(=O)c3ccccc23)ccc1F)N1CCN(C(=O)C2CC2)CC1 [Olaparib] (partner 8 µM)
Method in brief: as §1

Work on NCI-H1563 yielded a relative viability ([1]; 0.03162 µM) of 0.904, a relative viability ([1]; 0.1 µM) of 1.04 and a relative viability ([1]; 0.3162 µM) of 1.02. It also gave a relative viability ([2]; first compound 0.03162 µM) of 0.952, a relative viability ([2]; first compound 0.1 µM) of 0.87 and a relative viability ([2]; first compound 0.3162 µM) of 0.812. The relative viability ([3]; first compound 0.03162 µM) was 0.558, the relative viability ([3]; first compound 0.1 µM) was 0.504 and the relative viability ([3]; first compound 0.3162 µM) was 0.512. For the same cell line, the relative viability ([4]; first compound 0.03162 µM) was 0.954, the relative viability ([4]; first compound 0.1 µM) was 0.968 and the relative viability ([4]; first compound 0.3162 µM) was 0.887. The relative viability ([5]; first compound 0.03162 µM) was 0.718, the relative viability ([5]; first compound 0.1 µM) was 0.814 and the relative viability ([5]; first compound 0.3162 µM) was 0.716. The relative viability ([6]; first compound 0.03162 µM) was 0.963, the relative viability ([6]; first compound 0.1 µM) was 1.05 and the relative viability ([6]; first compound 0.3162 µM) was 0.913. For the same cell line, the relative viability ([7]; first compound 0.03162 µM) was 0.669, the relative viability ([7]; first compound 0.1 µM) was 0.665 and the relative viability ([7]; first compound 0.3162 µM) was 0.629. It also gave a relative viability ([8]; first compound 0.03162 µM) of 0.862, a relative viability ([8]; first compound 0.1 µM) of 0.852 and a relative viability ([8]; first compound 0.3162 µM) of 0.879. It also gave a relative viability ([9]; first compound 0.03162 µM) of 1.14, a relative viability ([9]; first compound 0.1 µM) of 1.33 and a relative viability ([9]; first compound 0.3162 µM) of 1.08. The relative viability ([10]; first compound 0.03162 µM) was 0.901, the relative viability ([10]; first compound 0.1 µM) was 0.956 and the relative viability ([10]; first compound 0.3162 µM) was 0.956. For the same cell line, the relative viability ([11]; first compound 0.03162 µM) was 0.452, the relative viability ([11]; first compound 0.1 µM) was 0.484 and the relative viability ([11]; first compound 0.3162 µM) was 0.496. For the same cell line, the relative viability ([12]; first compound 0.03162 µM) was 0.669, the relative viability ([12]; first compound 0.1 µM) was 0.691 and the relative viability ([12]; first compound 0.3162 µM) was 0.605. It also gave a relative viability ([13]; first compound 0.03162 µM) of 0.803, a relative viability ([13]; first compound 0.1 µM) of 0.911 and a relative viability ([13]; first compound 0.3162 µM) of 0.692.

Work on NCI-H1703 yielded a relative viability ([1]; 0.03162 µM) of 0.219, a relative viability ([1]; 0.1 µM) of 0.524 and a relative viability ([1]; 0.3162 µM) of 0.213. The relative viability ([2]; first compound 0.03162 µM) was 0.175, the relative viability ([2]; first compound 0.1 µM) was 0.243 and the relative viability ([2]; first compound 0.3162 µM) was 0.154. The relative viability ([14]; first compound 0.03162 µM) was 0.277, the relative viability ([14]; first compound 0.1 µM) was 0.398 and the relative viability ([14]; first compound 0.3162 µM) was 0.257. For the same cell line, the relative viability ([4]; first compound 0.1 µM) was 0.345, the relative viability ([4]; first compound 0.3162 µM) was 0.294 and the relative viability ([6]; first compound 0.1 µM) was 0.438. For the same cell line, the relative viability ([6]; first compound 0.3162 µM) was 0.267, the relative viability ([7]; first compound 0.03162 µM) was 0.223 and the relative viability ([7]; first compound 0.1 µM) was 0.211. For the same cell line, the relative viability ([7]; first compound 0.3162 µM) was 0.242, the relative viability ([8]; first compound 0.1 µM) was 0.46 and the relative viability ([8]; first compound 0.3162 µM) was 0.215. For the same cell line, the relative viability ([9]; first compound 0.03162 µM) was 0.141, the relative viability ([9]; first compound 0.1 µM) was 0.27 and the relative viability ([9]; first compound 0.3162 µM) was 0.129. It also gave a relative viability ([10]; first compound 0.03162 µM) of 0.205, a relative viability ([10]; first compound 0.1 µM) of 0.293 and a relative viability ([10]; first compound 0.3162 µM) of 0.158. It also gave a relative viability ([15]; first compound 0.1 µM) of 0.147, a relative viability ([15]; first compound 0.3162 µM) of 0.118 and a relative viability ([16]; first compound 0.03162 µM) of 0.151. For the same cell line, the relative viability ([16]; first compound 0.1 µM) was 0.269 and the relative viability ([16]; first compound 0.3162 µM) was 0.125.
